Target: MAPK14 (human) (UniProt Q16539)
Experiment: Inhibition of MAPK14 Kinase Activity

Sequence of MAPK14 (human) (Q16539 whole entry, looked up): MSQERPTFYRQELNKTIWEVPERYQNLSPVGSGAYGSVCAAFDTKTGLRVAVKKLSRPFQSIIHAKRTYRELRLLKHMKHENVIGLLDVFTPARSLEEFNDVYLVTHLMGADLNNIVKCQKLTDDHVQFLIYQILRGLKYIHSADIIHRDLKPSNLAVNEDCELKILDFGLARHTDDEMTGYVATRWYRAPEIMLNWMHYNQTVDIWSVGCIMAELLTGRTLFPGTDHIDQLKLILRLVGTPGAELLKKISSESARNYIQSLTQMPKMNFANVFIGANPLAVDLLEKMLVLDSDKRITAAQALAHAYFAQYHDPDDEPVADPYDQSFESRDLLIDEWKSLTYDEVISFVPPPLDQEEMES

| Compound | IC50 |
| --- | --- |
| Cc1ccc(C(=O)NC2CC2)cc1-n1ccnc(NCc2cccc(CNC(=O)OC(C)(C)C)c2)c1=O | 31.6 nM |
| Cc1ccc(C(=O)NC2CC2)cc1-n1ccnc(NCC2Cc3ccccc3CN2)c1=O (centres undefined) | 126 nM |
| CNCCCOc1ccccc1[C@@H]1CCCN1c1nccn(-c2cc(C(=O)NC3CC3)ccc2C)c1=O | 25.1 nM |
| Cc1ccc(C(=O)NC2CC2)cc1-n1ccnc(N[C@H](CC(=O)N2CCN(C)CC2)c2ccccc2)c1=O | 25.1 nM |
| CCC(C)NC(=O)c1ccc(C)c(-n2ccnc(NCc3ccc(N4CCN(C)CC4)cc3)c2=O)c1 (centres undefined) | 1000 nM |
| Cc1ccc(C(=O)NC2CC2)cc1-n1ccnc(NC(c2ccccc2)C2CCN(C)CC2)c1=O (centres undefined) | 251 nM |
| Cc1ccc(C(=O)NC2CC2)cc1-n1ccnc(NC(CC(=O)NC2CC2)c2ccccc2)c1=O (centres undefined) | 31.6 nM |
| Cc1ccc(C(=O)NC2CC2)cc1-n1ccnc(NCc2ccc(CNC(=O)OC(C)(C)C)cc2)c1=O | 501 nM |

Now those with a lower IC50, led by results:

| IC50 | Compound |
| --- | --- |
| 20 nM | Cc1ccc(C(=O)NC2CC2)cc1-n1ccnc(N[C@H](CC(=O)OC(C)(C)C)c2ccccc2)c1=O |
| 1.26 nM | CNCCCOc1ccccc1[C@H]1CCCN1c1nccn(-c2cc(C(=O)NC3CC3)ccc2C)c1=O |
| 1 nM | Cc1ccc(C(=O)NC2CC2)cc1-n1ccnc(N[C@@H](c2ccccc2)[C@@H](C)CN2CCCN(C)CC2)c1=O |
| 0.631 nM | Cc1ccc(C(=O)NC2CC2)cc1-n1ccnc(N[C@@H](c2ccccc2)[C@@H](C)CN2CCC(C(N)=O)CC2)c1=O |
| 0.631 nM | CCN(CC)CCOc1ccccc1C(C)(C)Nc1nccn(-c2cc(C(=O)NC3CC3)ccc2C)c1=O |
| 0.398 nM | CCC(CC)(Nc1nccn(-c2cc(C(=O)NC3CC3)ccc2C)c1=O)c1ccccc1OCCNC |

Source: the Kinase Knowledgebase extract (Sharma et al. 2016)
